Measurements published in patent US20220098203A1 (priority 2018, published 2022).

Target: T1, MAT2A homodimer (Homo sapiens, UniProt P31153)
T1 construct: inferred from the Ni sepharose purification and imidazole elution; made in house; host or cells: SF9 insect cells, recombinant baculovirus (Bac to Bac, pFASTBAC1)
Test: MAT2A biochemical assay (liberated phosphate, PiColorLock Gold)
Settings: Table 5a; MAT2A biochemical assay; read-out: Enzyme Inhibition
Description: Mat2A protein was expressed by recombinant baculovirus in SF9 infected cells using the Bac to Bac system cloned into the pFASTBAC1 vector (Invitrogen, Carlsbad, Calif.). Recombinant MAT2A was isolated from the cell lysate of 150 g of infected cells using HP Ni sepharose column chromatography. Recombinant MAT2A homodimer was eluted with 250 and 500 mM imidazole, and fractions containing MAT2A were identified by sodium dodecyl sulfate polyacrylamide gel electrophoresis and pooled.
Test compound was prepared in 100% dimethyl sulfoxide (DMSO) at 50× the desired final concentration. A 1 μL volume of compound dilution was added to 40 μL of enzyme dilution and the mixture was allowed to equilibrate for 60 minutes at 25° C. The enzymatic assay was initiated by the addition of 10 μL of substrate mix (500 μM ATP, pH 7.0, 400 μM L-methionine in 1× assay buffer), and the mixture was incubated for a further 60 minutes at 25° C. The reaction was halted and the liberated phosphate released by the enzyme in stoichiometric amounts by the production of S-adenosyl methionine (SAM) was measured using the PiColorLock Gold kit (Innova Biosciences, UK). Absolute product amounts were determined by comparison to a standard curve of potassium phosphate buffer, pH 8.0.

T1 sequence (P31153 whole entry): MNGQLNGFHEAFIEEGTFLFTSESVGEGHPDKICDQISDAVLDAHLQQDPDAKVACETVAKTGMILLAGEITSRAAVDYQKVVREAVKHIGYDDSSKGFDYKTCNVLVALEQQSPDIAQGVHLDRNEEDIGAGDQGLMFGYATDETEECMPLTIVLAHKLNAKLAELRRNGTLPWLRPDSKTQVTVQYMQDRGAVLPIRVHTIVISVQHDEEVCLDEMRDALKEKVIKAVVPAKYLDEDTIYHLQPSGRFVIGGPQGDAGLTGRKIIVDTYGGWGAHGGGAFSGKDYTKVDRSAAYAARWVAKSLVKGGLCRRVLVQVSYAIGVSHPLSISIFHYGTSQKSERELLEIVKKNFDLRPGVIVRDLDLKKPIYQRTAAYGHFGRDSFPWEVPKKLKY

| SMILES | IC50 |
| --- | --- |
| COc1ccc(N2Cc3cnc(NCC4CC4)nc3N(c3ccc(OC)cc3)C2=O)cc1 [Example 267] | 100 to 1000 nM |
| COc1ccc(N2C(=O)N(c3ccc4nn(C)cc4c3)Cc3cnc(NC4CCCCC4)nc32)cc1 [Example 248, 7-(cyclohexylamino)-1-(4-methoxyphenyl)-3-(2-methyl-2H-indazol-5-yl)-3,4-dihydropyrimido[4,5-d]pyrimidin-2(1H)-one] | 1000 to 10000 nM |
| Cn1cc2cc(N3Cc4ccc(OCC(F)F)nc4N(c4ccc5ncnn5c4)C3=O)ccc2n1 [Example 174, 1-([1,2,4]triazolo[1,5-a]pyridin-6-yl)-7-(2,2-difluoroethoxy)-3-(2-methyl-2H-indazol-5-yl)-3,4-dihydropyrido[2,3-d]pyrimidin-2(1H)-one] | 100 to 1000 nM |
| COc1ccc(N2Cc3cnc(NCC4CC4)nc3N(c3ccc(O)cc3)C2=O)cc1 [Example 265] | 1000 to 10000 nM |
| Cn1cc2cc(N3Cc4ccc(OCC(F)F)nc4N(c4ccc5nccn5c4)C3=O)ccc2n1 [Example 171, 7-(2,2-difluoroethoxy)-1-(imidazo[1,2-a]pyridin-6-yl)-3-(2-methyl-2H-indazol-5-yl)-3,4-dihydropyrido[2,3-d]pyrimidin-2(1H)-one] | < 100 nM |
| O=C1N(c2ccc3nccn3c2)Cc2cnc(NCC(F)(F)F)nc2N1c1ccc(OC(F)F)cc1 [Example 225, 1-(4-(difluoromethoxy)phenyl)-3-(imidazo[1,2-a]pyridin-6-yl)-7-((2,2,2-trifluoroethyl)amino)-3,4-dihydropyrimido[4,5-d]pyrimidin-2(1H)-one] | < 100 nM |
| Cn1cc(N2Cc3cnc(NCC(F)(F)F)nc3N(c3ccc(-c4nc[nH]n4)cc3)C2=O)ccc1=O [Example 221, 1-(4-(1H-1,2,4-triazol-3-yl)phenyl)-3-(1-methyl-6-oxo-1dihydropyridin-3-yl)-7-((2,2,2-trifluoroethyl)amino)-3,4-dihydropyrimido[4,5-d]pyrimidin-2(1H)-one] | 100 to 1000 nM |
| [2H]C([2H])([2H])Oc1ccc(N2C(=O)N(c3ccc4nc(C)n(C)c4c3)Cc3c(C)nc(NCC(F)(F)F)nc32)cc1 [Example 435, 3-(1,2-dimethyl-1H-benzo[d]imidazol-6-yl)-1-(4-(methoxy-d3)phenyl)-5-methyl-7-((2,2,2-trifluoroethyl)amino)-3,4-dihydropyrimido[4,5-d]pyrimidin-2(1H)-one] | < 100 nM |
| Cn1cc2cc(N3Cc4cc(Cl)c(OCC(F)F)cc4N(c4ccc(OC(F)F)cc4)C3=O)ccc2n1 [Example 284, 6-chloro-7-(2,2-difluoroethoxy)-1-(4-(difluoromethoxy)phenyl)-3-(2-methyl-2H-indazol-5-yl)-3,4-dihydroquinazolin-2(1H)-one] | 100 to 1000 nM |
| Cn1cc2cc(N3Cc4ccc(OCC(F)F)nc4N(c4ccc5ncn(C)c5c4)C3=O)ccc2n1 [Example 173, 7-(2,2-difluoroethoxy)-1-(1-methyl-1H-benzo[d]imidazol-6-yl)-3-(2-methyl-2H-indazol-5-yl)-3,4-dihydropyrido[2,3-d]pyrimidin-2(1H)-one] | 100 to 1000 nM |
| CCOc1cc2c(cn1)CN(c1ccc3nn(C)cc3c1)C(=O)N2c1ccc(Cl)cc1 [Example 418, 1-(4-chlorophenyl)-7-ethoxy-3-(2-methyl-2H-indazol-5-yl)-3,4-dihydropyrido[4,3-d]pyrimidin-2(1H)-one] | 100 to 1000 nM |

The remaining lines, values ahead:

| IC50 | SMILES |
| --- | --- |
| 1000 to 10000 nM | COc1ccc(N2Cc3cnc(NCC(F)(F)F)nc3N(c3ccc(Cl)c(Cl)c3)C2=O)cc1 [Example 245, 1-(3,4-dichlorophenyl)-3-(4-methoxyphenyl)-7-((2,2,2-trifluoroethyl)amino)-3,4-dihydropyrimido[4,5-d]pyrimidin-2(1H)-one] |
| 100 to 1000 nM | COc1ccc(N2Cc3cnc(NCC(F)(F)F)nc3N(c3cccc(OC)c3)C2=O)cc1 [Example 208, 1-(3-methoxyphenyl)-3-(4-methoxyphenyl)-7-((2,2,2-trifluoroethyl)amino)-3,4-dihydropyrimido[4,5-d]pyrimidin-2(1H)-one] |
| 1000 to 10000 nM | COc1ccc(N2Cc3cnc(NCC(F)(F)F)nc3N(c3cn[nH]c3)C2=O)cc1 [Example 194, 3-(4-methoxyphenyl)-1-(1H-pyrazol-4-yl)-7-((2,2,2-trifluoroethyl)amino)-3,4-dihydropyrimido[4,5-d]pyrimidin-2(1H)-one] |
| < 100 nM | COc1ccc(N2C(=O)N(c3ccncc3)Cc3cnc(NCC(F)(F)F)nc32)cc1 [Example 230, 1-(4-methoxyphenyl)-3-(pyridin-4-yl)-7-((2,2,2-trifluoroethyl)amino)-3,4-dihydropyrimido[4,5-d]pyrimidin-2(1H)-one] |
| 100 to 1000 nM | COc1ccc(N2Cc3cnc(NCC(F)(F)F)nc3N(c3ccc(C)cc3)C2=O)cc1 [Example 243, 3-(4-methoxyphenyl)-1-(p-tolyl)-7-((2,2,2-trifluoroethyl)amino)-3,4-dihydropyrimido[4,5-d]pyrimidin-2(1H)-one] |
| 100 to 1000 nM | CCC(=O)c1ccc(N2C(=O)N(c3ccc(OC)cc3)Cc3cnc(NCC(F)(F)F)nc32)cc1 [Example 199, 3-(4-methoxyphenyl)-1-(4-propionylphenyl)-7-((2,2,2-trifluoroethyl)amino)-3,4-dihydropyrimido[4,5-d]pyrimidin-2(1H)-one] |
| 1000 to 10000 nM | COc1ccc(N2Cc3cnc(NCC(F)(F)F)nc3N(c3ccc(C#N)cc3)C2=O)cc1 [Example 251, 4-(3-(4-methoxyphenyl)-2-oxo-7-((2,2,2-trifluoroethyl)amino)-3,4-dihydropyrimido[4,5-d]pyrimidin-1(2H)-yl)benzonitrile] |
| 100 to 1000 nM | COc1ccc(N2Cc3cnc(NCC(F)(F)F)nc3N(c3ccc(N)cc3)C2=O)cc1 [Example 204, 1-(4-aminophenyl)-3-(4-methoxyphenyl)-7-((2,2,2-trifluoroethyl)amino)-3,4-dihydropyrimido[4,5-d]pyrimidin-2(1H)-one] |
| < 100 nM | COc1ccc(N2Cc3cnc(NCC(F)(F)F)nc3N(c3ccc(N(C)C)cc3)C2=O)cc1 [Example 201, 1-(4-(dimethylamino)phenyl)-3-(4-methoxyphenyl)-7-((2,2,2-trifluoroethyl)amino)-3,4-dihydropyrimido[4,5-d]pyrimidin-2(1H)-one] |
| 100 to 1000 nM | COc1ccc(N2Cc3cnc(NCC(F)(F)F)nc3N(c3ccc4sccc4c3)C2=O)cc1 [Example 254, 1-(benzo[b]thiophen-5-yl)-3-(4-methoxyphenyl)-7-((2,2,2-trifluoroethyl)amino)-3,4-dihydropyrimido[4,5-d]pyrimidin2(1H)-one] |
| 100 to 1000 nM | COc1ccc(N2Cc3cnc(NCC(F)(F)F)nc3N(c3ccc(OC(F)(F)F)cc3)C2=O)cc1 [Example 256, 3-(4-methoxyphenyl)-7-((2,2,2-trifluoroethyl)amino)-1-(4-(trifluoromethoxy)phenyl)-3,4-dihydropyrimido[4,5-d]pyrimidin-2(1H)-one] |

Same assay, conditions: Table 5a; given as a bound, not a class symbol; read-out: Enzyme Inhibition

| IC50 | SMILES |
| --- | --- |
| > 10000 nM | CCOc1ccc(N2C(=O)N(c3ccc4nn(C)cc4c3)Cc3nnc(OCC)cc32)cc1 [Example 438] |

Same assay, conditions: Table 5b; Additional Examples; read-out: Enzyme Inhibition

| SMILES | IC50 |
| --- | --- |
| COc1ccc(N2C(=O)N(c3ccc4nn(C)cc4c3)Cc3ccc(N4CCC4)nc32)cc1 | > 10000 nM |
| COc1ccc(N2Cc3cnc(NCC(F)(F)F)nc3N(C3CCNC(=O)C3)C2=O)cc1 (centres unmarked) | > 10000 nM |
| COc1ccc(N2Cc3cnc(NCC(F)(F)F)nc3N(S(C)(=O)=O)C2=O)cc1 | > 10000 nM |
| COc1ccc(N2C(=O)N(c3ccc4nn(C)cc4c3)Cc3cnc(NC4CCCC4)nc32)cc1 | 100 to 1000 nM |
| COc1ccc(N2Cc3cnc(SC)nc3N(c3cccc(Br)c3)C2=O)cc1 | > 10000 nM |
| COc1ccc(N2Cc3cnc(SC)nc3N(c3ccc(Cl)c(C(F)(F)F)c3)C2=O)cc1 | > 10000 nM |
| CCOc1ccc2c(n1)N(c1ccc(OC)cc1)C(=O)N(c1ccc(Cl)cc1)C2 | > 10000 nM |

Now from value to compound:

| IC50 | SMILES |
| --- | --- |
| > 10000 nM | COc1ccc(N2Cc3cnc(NCC(F)(F)F)nc3N(c3cccc(Br)c3)C2=O)cc1 |
| 100 to 1000 nM | COc1ccc(N2Cc3cnc(NCC(F)(F)F)nc3N(c3ccc(C(C)(C)CO)cc3)C2=O)cc1 |
